Source: patent US5731452A, “7-thiaprostaglandins and method of production thereof” (Teijin Limited, priority 1994, dated 1998)

test system: rat platelet; test: Rat platelet aggregation inhibiting activity; type: cell-based; settings: rat platelet rich plasma; adenosine 2-phosphate induced; 37° C., one minute
Method: Wistar rats (males, approximately 400 g) were made to fast for one day, the entire blood was removed from the chest artery under anesthesia by ether, then a 1/10 volume of 3.8% aqueous solution of sodium citrate was added and immediately mixed in. The solution was centrifuged at 1000 rpm for 10 minutes, then the upper layer was used as the platelet rich plasma. The lower layer was centrifuged at 3000 rpm for 10 minutes and the upper layer of that was used as the platelet poor plasma. The platelet rich plasma was diluted by the platelet poor plasma to give a number of platelets of 3.5×10^8 /mm^3. This was used for the measurement. Note that the measurement of the platelets was performed using an automatic blood cell counter MEK-4500 (Nihon Koden). The measurement of the platelet aggregation was performed by measuring the turbidity using an NBS HEMA TRACER 801 (M.C. Medical). 90 μl of the platelet solution was inserted in a cuvette, then 5 μl each of the test compounds was added to give the target final concentration. The result was heated for one minute at 37° C., then 5 μl of a 100 μM aqueous solution of adenosine 2-phosphate (M.C. Medical) was added to induce platelet aggregation. The aggregation inhibiting activity was found from the following formula.
Aggregation inhibiting rate (%)={1-(maximum change of turbidity at time of
addition of drug)/(maximum change of turbidity at time of non-addition of
Further, the concentration of the compound giving 50% inhibition was used as the IC50.

SMILES	IC50
CCCC(=O)OC1=C(SCCCCCC(=O)OC)[C@@H](/C=C/[C@@H](O)C2CCCCC2)[C@H](O)C1 [drawing 177]	73 nM
CCCC(=O)OC1=C(SCCCCCC(=O)OC)[C@@H](/C=C/C(O)CCCc2ccccc2)[C@H](O)C1 (stereo partly shown) [drawing 180]	290 nM

Results, then the molecule that gave them:

IC50	SMILES
52 nM	CCCCC(C)C[C@H](O)/C=C/[C@@H]1C(SCCCCCC(=O)OC)=C(OC(C)=O)C[C@H]1O (stereo partly shown)
500 nM	CCCCC(C)C[C@H](O)/C=C/[C@@H]1C(SCCCCCC(=O)OC)=C(OC(=O)C(C)C)C[C@H]1O (stereo partly shown)
1280 nM	CCCCC(C)C[C@H](O)/C=C/[C@@H]1C(SCCCCCC(=O)OC)=C(OC(=O)C(C)(C)C)C[C@H]1O (stereo partly shown)
221 nM	CCCCOC(=O)CCCCCSC1=C(OC(=O)CCC)C[C@@H](O)[C@@H]1/C=C/[C@@H](O)CC(C)CCCC (stereo partly shown)
629 nM	CCCCC[C@H](O)/C=C/[C@@H]1C(SCCCCCC(=O)OC)=C(OC(=O)CCC)C[C@H]1O
380 nM	CCCC(=O)OC1=C(SCCCCCC(=O)OC)[C@@H](/C=C/C(O)CC(C)C)[C@H](O)C1 (stereo partly shown)
129 nM	CCCCC(C)C[C@H](O)/C=C/[C@@H]1C(SCCCCCC(=O)OC)=C(OC(=O)CCC)C[C@H]1O (stereo partly shown) [drawing 170]
284 nM	CCCC(=O)OC1=C(SCCCCCC(=O)OC)[C@@H](/C=C/[C@@H](O)C2CCCC2)[C@H](O)C1 [drawing 176]
700 nM	CCCCC(C)C[C@H](O)/C=C/[C@@H]1C(SCCCCCC(=O)OC)=C(OC(=O)c2ccccc2)C[C@H]1O (stereo partly shown) [drawing 179]

test system: cell migration induced by MCP-1 in human promonocytic leukemia cell line, THP-1; test: Activity for inhibiting cell migration induced by MCP-1 (THP-1 cells); type: cell-based; settings: 20 ng/ml recombinant human MCP-1, 37° C., two hours
Method: The cell migration induced by the monocyte chemoattractant protein MCP-1/MCAF was measured for the purpose of investigating the activity of the tested compounds shown in Table 1 in inhibiting cell migration by the following manner in accordance with the method of Falk et al. (J. Immunol. Methods, 33, 239-247 (1980)) using human promonocytic leukemia cell line, THP-1 (ATCC TIB203). That is, THP-1 cells diluted to 2×10^6 /ml by 10% fetal calf serum: FCS-containing RPMI-1640 medium (made by Flow Laboratories) were added to the upper chamber (200 μl) of the 96-well microchemotaxis chamber (made by Neuroprobe Inc.) while recombinant human MCP-1 (made by Peprotech Co.) diluted by the same medium to a final concentration of 20 ng/ml was added to the bottom chamber (35 μl). A polycarbonate filter (pore size of 5 μm, PVP-free, made by Neuroprobe Co) was affixed between the two. Incubation was performed at 37° C. in the presence of 5% CO2 for two hours. The filter was taken out, then the cells migrating to the bottom surface of the filter were fixed and stained by a Diff Quick solution (made by International Reagents Co.), then were measured by a plate reader (made by Molecular Device Co.) at a measurement wavelength of 550 nm. The mean value of three wells was determined and used as the indicator of the number of the migrating cells. At this time, the text compounds were added at various concentrations along with the THP-1 cells to the top chambers and the activity in inhibiting cell migration was determined. The percent of inhibition of cell migration was found by dividing the {(number of migrating cells caused by the MCP-1 added to the bottom chamber in the case of the test compound being added to the top chamber)--(number of migrating cells in the case of no test compound being added to the top chamber and no MCP-1 being added to the bottom chamber)} by the {(number of migrating cells caused by the MCP-1 added to the bottom chamber in the case of no test compound being added to the top chamber)--(number of migrating cells in the case of no test compound being added to the top chamber and no MCP-1 being added to the bottom chamber)}.

SMILES	IC50
CCCC(=O)OC1=C(SCCCCCC(=O)OC)[C@@H](/C=C/C(O)C(C)(C)c2ccccc2)[C@H](O)C1 (stereo partly shown) [drawing 135]	100 nM
CCCC(=O)OC1=C(SCCCCCC(=O)OC)[C@@H](/C=C/C(O)C(C)(C)c2ccccc2)[C@H](O)C1 (stereo partly shown) [drawing 136]	13 nM
CCCC(=O)OC1=C(SCCCCCC(=O)OC)[C@@H](/C=C/C(O)C(C)c2ccccc2)[C@H](O)C1 (stereo partly shown) [drawing 139]	6 nM
CCCC(=O)OC1=C(SCCCCCC(=O)OC)[C@@H](/C=C/C(O)C(C)c2ccccc2)[C@H](O)C1 (stereo partly shown) [drawing 140]	0.021 nM
CCCC(=O)OC1=C(SCCCCCC(=O)OC)[C@@H](/C=C/C(O)C(c2ccccc2)c2ccccc2)[C@H](O)C1 (stereo partly shown) [drawing 142]	1300 nM
CCCC(=O)OC1=C(SCCCCCC(=O)OC)[C@@H](/C=C/C(O)C(c2ccccc2)c2ccccc2)[C@H](O)C1 (stereo partly shown) [drawing 143]	> 5000 nM
CCCC(=O)OC1=C(SCCCCCC(=O)OC)[C@@H](/C=C/C(O)CCCc2ccccc2)[C@H](O)C1 (stereo partly shown) [drawing 146]	300 nM
CCCC(=O)OC1=C(SCCCCCC(=O)OC)[C@@H](/C=C/C(O)CCCc2ccccc2)[C@H](O)C1 (stereo partly shown) [drawing 147]	4.3 nM
CCCC(=O)OC1=C(SCCCCCC(=O)OC)[C@@H](/C=C/C(O)Cc2ccc(C)cc2)[C@H](O)C1 (stereo partly shown) [drawing 148]	> 10000 nM
CCCC(=O)OC1=C(SCCCCCC(=O)OC)[C@@H](/C=C/C(O)Cc2ccc(C)cc2)[C@H](O)C1 (stereo partly shown) [drawing 149]	100 nM
CCCC(=O)OC1=C(SCCCCCC(=O)OC)[C@@H](/C=C/C(O)Cc2cccc(C)c2)[C@H](O)C1 (stereo partly shown) [drawing 153]	600 nM
CCCC(=O)OC1=C(SCCCCCC(=O)OC)[C@@H](/C=C/C(O)Cc2cccc(C)c2)[C@H](O)C1 (stereo partly shown) [drawing 154]	1.2 nM
CCCC(=O)OC1=C(SCCCCCC(=O)OC)[C@@H](/C=C/C(O)Cc2cccc(Cl)c2)[C@H](O)C1 (stereo partly shown) [drawing 155]	8 nM
CCCC(=O)OC1=C(SCCCCCC(=O)OC)[C@@H](/C=C/C(O)Cc2cccc(Cl)c2)[C@H](O)C1 (stereo partly shown) [drawing 156]	0.4 nM
CCCC(=O)OC1=C(SCCCCCC(=O)OC)[C@@H](/C=C/C(O)Cc2cccc(OC)c2)[C@H](O)C1 (stereo partly shown) [drawing 157]	33 nM
CCCC(=O)OC1=C(SCCCCCC(=O)OC)[C@@H](/C=C/C(O)Cc2cccc(OC)c2)[C@H](O)C1 (stereo partly shown) [drawing 158]	2.3 nM
CCCC(=O)OC1=C(SCCCCCC(=O)OC)[C@@H](/C=C/C(O)Cc2cccc(C(=O)OC)c2)[C@H](O)C1 (stereo partly shown) [drawing 159]	230 nM
CCCC(=O)OC1=C(SCCCCCC(=O)OC)[C@@H](/C=C/C(O)Cc2cccc(C(=O)OC)c2)[C@H](O)C1 (stereo partly shown) [drawing 160]	2.3 nM
CCCC(=O)OC1=C(SCCCCCC(=O)OC)[C@@H](/C=C/C(O)Cc2ccccc2C)[C@H](O)C1 (stereo partly shown) [drawing 161]	190 nM
CCCC(=O)OC1=C(SCCCCCC(=O)OC)[C@@H](/C=C/C(O)Cc2ccccc2C)[C@H](O)C1 (stereo partly shown) [drawing 162]	4.4 nM
CCCC(=O)OC1=C(SCCCCCC(=O)OC)[C@@H](/C=C/C(O)Cc2ccc([N+](=O)[O-])cc2)[C@H](O)C1 (stereo partly shown) [drawing 163]	< 100 nM
CCCC(=O)OC1=C(SCCCCCC(=O)OC)[C@@H](/C=C/C(O)Cc2ccc([N+](=O)[O-])cc2)[C@H](O)C1 (stereo partly shown) [drawing 164]	3.6 nM
CCCC(=O)OC1=C(SCCCCCC(=O)OC)[C@@H](/C=C/C(O)Cc2ccc(Cl)cc2)[C@H](O)C1 (stereo partly shown) [drawing 165]	< 100 nM
CCCC(=O)OC1=C(SCCCCCC(=O)OC)[C@@H](/C=C/C(O)Cc2ccc(Cl)cc2)[C@H](O)C1 (stereo partly shown) [drawing 166]	< 1 nM
CCCC(=O)OC1=C(CCCCCCC(=O)OC)[C@@H](/C=C/C(O)Cc2ccccc2)[C@H](O)C1 (stereo partly shown) [drawing 167]	4000 nM
CCCC(=O)OC1=C(CCCCCCC(=O)OC)[C@@H](/C=C/C(O)Cc2ccccc2)[C@H](O)C1 (stereo partly shown) [drawing 168]	5 nM

Results, then the molecule that gave them:

IC50	SMILES
90 nM	CCCC(=O)OC1=C(SCCCCCC(=O)OC)[C@@H](/C=C/C(O)Cc2ccsc2)[C@H](O)C1 (stereo partly shown) [drawing 151]
0.08 nM	CCCC(=O)OC1=C(SCCCCCC(=O)OC)[C@@H](/C=C/C(O)Cc2ccsc2)[C@H](O)C1 (stereo partly shown) [drawing 152]

same assay, conditions: Homo sapiens, THP-1, 2 h, 20 ng/ml recombinant human MCP-1, 37° C., two hours

SMILES	IC50
CCCCC[C@H](O)/C=C/[C@@H]1C(SCCCCCC(=O)OC)=C(OC(=O)[C@H](Cc2ccccc2)NC(=O)OCc2ccccc2)C[C@H]1O	0.22 nM
CCCC(=O)OC1=C(SCCCCCC(=O)OC)[C@@H](/C=C/C(O)C2CCCCC2)[C@H](O)C1 (stereo partly shown)	100 nM
CCCCCC(O)CC[C@@H]1C(SCCCCCC(=O)OC)=C(OC(=O)CCC)C[C@H]1O (stereo partly shown)	0.14 nM
CCCC(=O)OC1=C(SCCCCCC(=O)OC)[C@@H](/C=C/C(O)c2ccccc2)[C@H](O)C1 (stereo partly shown)	> 1000 nM
CCCC(=O)OC1=C(SCCCCCC(=O)OC)[C@@H](/C=C/[C@@H](O)Cc2ccccc2)[C@H](O)C1	1.1 nM
CCCC(=O)OC1=C(SCCCCCC(=O)OC)[C@@H](/C=C/[C@@H](O)C2CCCCC2)[C@H](O)C1 [drawing 123]	2.5 nM
CCCC(=O)OC1=C(SCCCCCC(=O)OC)[C@@H](/C=C/C(O)Cc2ccccc2)[C@H](O)C1 (stereo partly shown) [drawing 131]	8.3 nM
CCCC(=O)OC1=C(SCCCCCC(=O)OC)[C@@H](/C=C/C(O)[C@H](C)c2ccccc2)[C@H](O)C1 (stereo partly shown) [drawing 137]	3 nM

Results, then the molecule that gave them:

IC50	SMILES
1.7 nM	CCCCC(C)(O)C/C=C/[C@@H]1C(SCCCCCC(=O)OC)=C(OC(=O)CCC)C[C@H]1O (stereo partly shown)
8.5 nM	CCCC(=O)OC1=C(SCCCCCC(=O)OC)[C@@H](/C=C/C(O)CCc2ccccc2)[C@H](O)C1 (stereo partly shown)
120 nM	CCCC(=O)OC1=C(SCCCCCC(=O)OC)[C@@H](/C=C/[C@@H](O)CCOCC)[C@H](O)C1
6 nM	CCCCC(C)C[C@H](O)/C=C/[C@@H]1C(SCCC/C=C/C(=O)OC)=C(OC(=O)CCC)C[C@H]1O (stereo partly shown)
0.51 nM	CCCC(=O)OC1=C(SCCCCCC(=O)OC)[C@@H](/C=C/[C@@H](O)C2CCCC2)[C@H](O)C1 [drawing 121]
0.81 nM	CCCCC[C@H](O)/C=C/[C@@H]1C(SCCCCCC(=O)O)=C(OC(=O)CCC)C[C@H]1O [drawing 126]
810 nM	CCCCC(C)C[C@H](O)/C=C/[C@@H]1C(SCCCCCC(=O)OC)=C(OC(=O)c2ccccc2)C[C@H]1O (stereo partly shown) [drawing 129]
2.1 nM	CCCCC(C)C[C@H](O)/C=C/[C@@H]1C(SCCCOCC(=O)OC)=C(OC(=O)CCC)C[C@H]1O (stereo partly shown) [drawing 141]
